Assay results published in PubChem BioAssay (NCI).
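Where inhibition never reached the appropriate level, the endpoint shown equals the highest concentration tested. Otherwise, values were interpolated linearly from a five-concentration, 48-hour dose response in 96-well plates. GI50 is the concentration that inhibits growth by half. TGI: concentration producing complete growth inhibition.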

Legend:
Assay in all cases: DTP human tumour cell line panel, 48 h
[1] = system: M19-MEL melanoma
[2] = system: UACC-62 melanoma
[3] = system: CCRF-CEM leukemia
[4] = system: NCI-H460 lung
[5] = system: NCI-H226 lung
[6] = system: OVCAR-4 ovarian
[7] = system: SK-MEL-28 melanoma
[8] = system: MDA-MB-231 breast
[9] = system: NCI/ADR-RES ovarian

| Structure (SMILES) | TGI [1] | TGI [2] | TGI [3] | TGI [4] | TGI [5] | TGI [6] | TGI [7] | GI50 [1] | GI50 [2] | GI50 [3] | GI50 [4] | GI50 [5] | GI50 [6] | GI50 [7] | TGI [8] | TGI [9] | GI50 [8] | GI50 [9] |
| --- | --- | --- | --- | --- | --- | --- | --- | --- | --- | --- | --- | --- | --- | --- | --- | --- | --- | --- |
| CC(=O)/C(=C\C1=CCCO1)C(=O)Nc1ccccc1C | > 100 µM | > 100 µM | > 100 µM | > 100 µM | > 100 µM | > 100 µM |  |  |  |  |  |  |  |  |  |  |  |  |
| O=C1NC2CCC(C2)C1c1ccccc1 (centres undefined) | > 100 µM | > 100 µM | > 100 µM | > 100 µM | > 100 µM | > 100 µM | > 100 µM |  |  |  |  |  |  |  |  |  |  |  |
| COC(=O)C12CC(c3ccccc31)C1C(=O)OC(=O)C12 (centres undefined) | > 100 µM | > 100 µM | > 100 µM | > 100 µM |  | > 100 µM | > 100 µM |  |  |  |  |  |  |  |  |  |  |  |
| CCN(CC)CCNC(=O)c1nn(C)c(=S)[nH]c1=S | > 100 µM | > 100 µM | > 100 µM | > 100 µM | > 100 µM | > 100 µM | > 100 µM |  |  |  |  |  |  |  |  |  |  |  |
| Nc1nc(=S)[nH]c(C(=O)Nc2ccc(Cl)c(Cl)c2)c1-c1ccc(Cl)cc1 | > 100 µM | > 100 µM | > 100 µM | > 100 µM | > 100 µM | > 100 µM | > 100 µM |  |  |  |  |  |  |  |  |  |  |  |
| Cc1ccc(NC(=O)CCC/C(CC(=O)c2ccc(Br)cc2)=N/NC(=O)CC#N)cc1 | > 100 µM | > 100 µM | > 100 µM | > 100 µM | > 100 µM | > 100 µM | > 100 µM |  |  |  |  |  |  |  |  |  |  |  |
| C[C@]12CC[C@H](OCCC#N)CC1=CC[C@@H]1C2CC[C@]2(C)/C(=N/OCCC#N)CCC12 (some centres undefined) | > 100 µM | > 100 µM | > 100 µM | > 100 µM | > 100 µM | 97.7 µM | > 100 µM |  |  |  |  |  |  |  |  |  |  |  |
| Cc1cccc(C)c1NC(=O)CCc1nnc2s/c(=C\c3ccc(Cl)cc3)c(=O)n12 | > 100 µM | > 100 µM | > 100 µM | > 100 µM | > 100 µM | > 100 µM | > 100 µM |  |  |  |  |  |  |  |  |  |  |  |
| CN(C)CC/C(=N\Nc1ccccc1)c1ccccc1 | 77.9 µM | > 100 µM |  |  |  | 32.4 µM |  |  |  |  |  |  |  |  |  |  |  |  |
| O=C1c2ccccc2C2(O)NC(=S)N(c3ccccc3)C12O (centres undefined) | > 100 µM | > 100 µM | > 100 µM | > 100 µM |  | > 100 µM | > 100 µM |  |  |  |  |  |  |  |  |  |  |  |
| CCC[CH2][Sn]([CH2]CCC)([O]C(=O)C(N)CSC)[O]C(=O)C(N)CSC (centres undefined) | 19.5 µM | 23 µM | 6.43 µM | 90.1 µM | 34.9 µM | 26.1 µM | 18.2 µM | 6.65 µM | 10.4 µM | 1.73 µM | 29.7 µM | 20.5 µM | 13 µM | 5.86 µM |  |  |  |  |
| COc1cc(C(=O)C/C(CCC(=O)Nc2ccc(Cl)cc2C)=N/NC(=O)C(N)=O)ccc1O | > 100 µM | > 100 µM | > 100 µM | > 100 µM | > 100 µM | > 100 µM |  |  |  |  |  |  |  |  |  |  |  |  |
| CC(=O)N/C(=C\c1cccc([N+](=O)[O-])c1)c1nc2c3c(ccc2[nH]1)C(=O)c1ccccc1C3=O | > 100 µM | > 100 µM | > 100 µM | > 100 µM | > 100 µM | > 100 µM | > 100 µM |  |  |  |  |  |  |  |  |  |  |  |
| COc1ccc2cc3[n+](cc2c1OC)CCc1cc(O)c(O)cc1-3 | > 100 µM | > 100 µM | > 100 µM | > 100 µM | > 100 µM | > 100 µM |  |  |  |  |  |  |  |  |  |  |  |  |
| Cc1nc2cc(N)c(F)cc2[nH]1 | > 100 µM | > 100 µM | > 100 µM | > 100 µM | > 100 µM | > 100 µM | > 100 µM |  |  |  |  |  |  |  |  |  |  |  |
| CCCCc1ccc(-n2c3nc(=O)n(C)c(=O)c-3nc3ccccc32)cc1 | 2.87 µM | 4 µM | 41.6 µM | 16.6 µM | 26.6 µM | 22 µM |  |  |  |  |  |  |  |  |  |  |  |  |
| NC1CCCCC1N.O=S(=O)([O-])CCCN1CCOCC1.O=S(=O)([O-])CCCN1CCOCC1.[Pt+4] | > 100 µM | > 83.1 µM | 58.7 µM | > 100 µM | > 100 µM | > 100 µM | 48.3 µM | 4.52 µM | 11.8 µM | 5.16 µM | 3.54 µM | 22.5 µM | > 29.7 µM | 5.32 µM |  |  |  |  |
| COC1OC(C)C(O)CC1OS(=O)(=O)c1ccc(C)cc1 (centres undefined) | > 100 µM | > 100 µM | > 100 µM | > 100 µM | > 100 µM | > 100 µM | > 100 µM |  |  |  |  |  |  |  |  |  |  |  |
| c1ccc2c(c1)-c1ccccc1C2N1CC2CCC(CC2)C1 |  | 44.5 µM | 35.8 µM | 52.2 µM | 41.5 µM | > 100 µM | 96.1 µM |  |  |  |  |  |  |  | 37.4 µM | 39.5 µM |  |  |
| CCOC(=O)C1=C(Nc2ccc(Cl)cc2Cl)OC/C1=N\NS(=O)(=O)c1ccc(C)cc1 | > 100 µM | > 100 µM | > 100 µM | > 100 µM | > 100 µM | > 100 µM | > 100 µM |  |  |  |  |  |  |  |  |  |  |  |
| COc1cc2c(Oc3ccc4[nH]c(C)cc4c3F)ccnc2cc1OCC1(N)CC1 |  | 3.79 µM | 12.9 µM | 6.84 µM | 14.9 µM | > 100 µM | 2.95 µM |  | 1.64 µM | 1.57 µM | 0.908 µM | 0.894 µM | 4.22 µM | 1.41 µM | 4.61 µM | > 100 µM | 1.8 µM | 2.31 µM |
| Cc1cc(C)nc(NS(=O)(=O)c2ccc(Nc3c4ccc(Cl)cc4nc4c(C(=O)Nc5ccc(S(=O)(=O)N=C(N)N)cc5)cccc34)cc2)n1 | > 100 µM | > 100 µM | > 100 µM | > 100 µM |  | > 100 µM | > 100 µM |  |  |  |  |  |  |  |  |  |  |  |
| COc1cc2c(cc1OCCCCCCN1CCN(c3ncnc4ccccc34)CC1)N=CC1CCCN1C2=O (centres undefined) |  | 0.326 µM | 0.302 µM | 0.728 µM | 0.33 µM | 2.05 µM | 0.51 µM |  | 0.143 µM | 0.026 µM | 0.11 µM | 0.125 µM | 0.13 µM | 0.193 µM | 0.394 µM |  | 0.0425 µM | 0.899 µM |
| C=C[C@H]1CCC/C=C/[C@@H]2C[C@H](O)C[C@H]2[C@H](O)/C=C/C(=O)O1 |  | > 100 µM | > 100 µM | > 100 µM | 0.0289 µM | > 100 µM | 0.404 µM |  | 0.0344 µM | 0.0418 µM | 0.0422 µM | < 0.0125 µM | 0.0303 µM | 0.0213 µM | 0.0403 µM | > 100 µM | 0.0201 µM | 0.0361 µM |
| Cc1cc(I)cc(CN(C)CCN2CCCC2)c1O |  | 33.2 µM | 86 µM | 85.4 µM | > 100 µM | > 100 µM | 35.4 µM |  | 17.2 µM | 22.3 µM | 28.3 µM | 47.9 µM | 38.7 µM | 17.7 µM | 67.3 µM | > 100 µM | 22 µM | 30.1 µM |
